Data from PubChem BioAssay (NCI).
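Interpolation was linear, between the two tested concentrations surrounding the appropriate level; five concentrations were tested over 48 hours in 96-well plates. GI50: concentration for 50% inhibition of growth. TGI: concentration producing complete growth inhibition.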

Assays:
Test in all cases: NCI tumour cell line growth inhibition, 48 h
BT-549 breast = tested on: BT-549 breast
HS 578T breast = tested on: HS 578T breast
COLO 205 colon = tested on: COLO 205 colon
OVCAR-8 ovarian = tested on: OVCAR-8 ovarian
SK-MEL-2 melanoma = tested on: SK-MEL-2 melanoma
OVCAR-5 ovarian = tested on: OVCAR-5 ovarian
HT29 colon = tested on: HT29 colon
SF-539 CNS = tested on: SF-539 CNS
SK-MEL-28 melanoma = tested on: SK-MEL-28 melanoma
RPMI-8226 leukemia = tested on: RPMI-8226 leukemia

SMILES	TGI (BT-549 breast) [µM]	TGI (HS 578T breast) [µM]	TGI (COLO 205 colon) [µM]	TGI (OVCAR-8 ovarian) [µM]	TGI (SK-MEL-2 melanoma) [µM]	TGI (OVCAR-5 ovarian) [µM]	TGI (HT29 colon) [µM]	TGI (SF-539 CNS) [µM]	TGI (SK-MEL-28 melanoma) [µM]	GI50 (BT-549 breast) [µM]	GI50 (HS 578T breast) [µM]	GI50 (RPMI-8226 leukemia) [µM]	TGI (RPMI-8226 leukemia) [µM]	GI50 (COLO 205 colon) [µM]	GI50 (OVCAR-8 ovarian) [µM]	GI50 (SK-MEL-2 melanoma) [µM]	GI50 (OVCAR-5 ovarian) [µM]	GI50 (SF-539 CNS) [µM]	GI50 (SK-MEL-28 melanoma) [µM]
CCOC(=O)C(NC(=O)c1ccco1)(Nc1nc2ccc(OCC)cc2s1)C(F)(F)F (stereo not drawn)	> 100	> 100	46.4	> 100	> 100	> 100	> 100	> 100	> 100	–	–	–	–	–	–	–	–	–	–
COc1ccc(C(=O)/C=C/c2cccc([N+](=O)[O-])c2)c(OC)c1	2.99	> 50	> 50	> 50	> 50	> 50	–	3.09	> 50	1.12	3.85	1.09	3.14	6.85	1.78	12.4	1.56	1.18	4.75
O=C(O)C1C2CCC(O2)C1C(=O)Nc1cccc2cccnc12 (stereo not drawn)	> 100	> 100	–	–	> 100	> 100	> 100	–	> 100	–	–	–	> 100	–	–	–	–	–	–
CC(=O)C1=C(C)N(c2ccc(C)cc2)C2(O)C=CC(=O)C3C(=O)N(c4ccccc4)C(=O)C132 (stereo not drawn)	39.8	> 100	> 100	59.2	28.8	> 100	44.8	65.2	43.8	–	–	–	> 100	–	–	–	–	–	–
CCC1CN(C(=O)c2ccccc2)C(Cc2c[nH]c3ccccc23)C(=O)C1CC(=O)OC (stereo not drawn)	> 100	> 100	> 100	> 100	> 100	> 100	> 100	> 100	> 100	–	–	–	–	–	–	–	–	–	–
COc1nc(C#CC2(O)CCCCC2)nc(OC)n1	28	44.8	45.5	39.8	27	25.4	45.4	23.3	30.2	–	–	–	10.5	–	–	–	–	–	–
CCn1c(-c2ccc(N=NNc3ccc(-c4n[nH]c(=S)n4CC)cc3)cc2)n[nH]c1=S	5.73	> 100	–	6.96	4.45	–	> 100	–	> 100	–	–	–	5.64	–	–	–	–	–	–
O=c1[nH]nc(NNc2ccccc2)c2nnn(C3CCCCC3)c12	> 100	–	> 100	> 100	> 100	> 100	> 100	–	> 100	–	–	–	> 100	–	–	–	–	–	–
